For series [1], the target named is mammalian GABAARs (central benzodiazepine binding site). As to the kind of experiment: [3H]flunitrazepam displacement binding assay, rat cerebral cortex membranes. The following applies: rat brain membrane preparations, 0.4 nM radioligand, 60 min at 4°C. Here is the method: Binding assays for benzodiazepines against mammalian GABAARs were performed measuring displacement of [3H] flunitrazepam (0.4 nM) from crude brain membrane preparations. Rat cerebral cortex membrane homogenate (80 μg protein) was incubated with 0.4 nM [3H]-flunitrazepam in 50 mM Tris-HCl (pH 7.7), plus test compounds (screened at concentrations ranging from 0.1 nM to 10 μM), and non-specific binding was assessed by incubation with diazepam (3 μM). Following incubation for 60 min at 4°C, samples were vacuum filtered through glass fiber filters (GF/B, Packard) presoaked with 0.3% PEI and rinsed with ice-cold 50 mM Tris-HCl (Unifilter, Packard). Filters were dried and counted for radioactivity in a scintillation counter (Topcount, Packard). Ki values of test compounds were calculated by the Cheng-Prusoff equation.

In series [2] the test system is adult male S. mansoni. As to the kind of experiment: Adult schistosome mobility assay (inhibition of movement). It is filed as cell-based, Schistosoma mansoni. The settings on record: for pIC50: Schistosoma mansoni, adult male worms cultured in compound overnight, movement relative to DMSO control; for Potency at evoking coiled, contractile paralysis / activity against parasites (in words): in vitro, concentration-response, Fig 2B & 2C.

In series [3] the test system is adult male S. mansoni. As to the kind of experiment: In vitro screen / re-screen for coiled, contractile (curl) phenotype. It is filed as cell-based, Schistosoma mansoni. The settings on record: for Worms showing curl phenotype: overnight.
The next series has as its system S. mansoni. The experiment in a line: Recovery of worm movement following drug washout. The series is classed as cell-based, Schistosoma mansoni. The following applies: 14 hours treatment, recovery 3 hours, 1 day after washout. As for the experimental part:
Female Swiss Webster mice infected with S. mansoni cercariae (NMRI strain) were sacrificed 49 days post infection by CO2 euthanasia. Adult schistosomes were recovered by dissection of the mesenteric vasculature. Harvested schistosomes were washed in DMEM (ThermoFisher cat. # 11995123) supplemented with HEPES (25mM), 5% v/v heat inactivated FCS (Sigma Aldrich cat. # 12133C) and Penicillin-Streptomycin (100 units/mL). Worms were cultured in 6 well dishes (4–5 male worms in 3mL media per well) in the presence of various test compounds or DMSO vehicle control overnight (37°C / 5% CO2). Worms were imaged the next day to record movement phenotypes using a Zeiss Discovery v20 stereomicroscope and a QiCAM 12-bit cooled color CCD camera controlled by Metamorph imaging software (version 7.8.1.0). 1 minute recordings were acquired at 4 frames per second and saved as a .TIFF stack, which was imported into ImageJ for analysis. An outline of the workflow used to quantify movement from these video recordings is shown in S1 Fig. Maximum intensity projections were generated for the entire stack of images (241 frames for a 1-minute recording) and integrated pixel values were measured for the resulting composite image, allowing normalization of movement relative to DMSO control treated worms. Inhibition of movement IC50 values were calculated using GraphPad Prism v8.1.1 and are expressed ± 95% confidence intervals. Data represents mean ± standard error for ≥3 independent experiments. Significance (*) was determined by unpaired t-test at a threshold of 0.05.
(§1) Fig 4 Xhe-II-048 damages the schistosome tegument. (A) Transmission electron microscopy images of transverse sections of S. mansoni exposed to either DMSO control, MCLZ (5 μM) or various imidazobenzodiazepines (10 μM, 14 hours). Dorsal tegument is oriented to the top. Scale = 2 μm. Arrowed = vacuoles beneath the tegument apical membrane. (B) Movement of worms treated with DMSO, MCLZ, or TMS-acetylene imidazobenzodiazepine compounds (10 μM, 14 hours), and recovery at various timepoints (3 hours, 1 day) following drug washout.

A further series relates to schistosomes. On the set-up: method as in PMID 380021. The settings on record: human clinical trials; cited from earlier work.
In another series the test system is S. mansoni tegument. As to the kind of experiment: Transmission electron microscopy of drug-treated worms (tegument damage). The series is classed as cell-based, Schistosoma mansoni. Here is the method:
Adult worms were harvested and recovered as above. Fixation was carried out overnight at 4°C in 2.5% glutaraldehyde/2% paraformaldehyde in 0.1 M sodium cacodylate (pH 7.3). Worms were washed 3 × 10 minutes in 0.1 M sodium cacodylate and post-fixed for 2 hours on ice in reduced 1% osmium tetraoxide. Worms were then washed 2 × 10 minutes in distilled water and stained overnight at 4°C in alcoholic Uranyl Acetate. Worms were rinsed in distilled water, dehydrated in 50%, 75% and 95% MeOH, followed by successive 10 minute rinses in 100% MeOH and acetonitrile. Worms were incubated in a 1:1 mix of acetonitrile and epoxy resin for 1 hour prior to 2 × 1 hour incubations in epoxy resin. Worms were then cut transversely and embedded overnight in epoxy resin (60°C). Ultra-thin sections (70 nm) were cut onto bare 200-mesh copper grids and stained in aqueous lead citrate for 1 minute. Sections were imaged on a Hitachi H-600 electron microscope fitted with a Hamamatsu C4742-95 digital camera) operating at an accelerating voltage of 75 kV.
Given the parasite-selectivity of imidazobenzodiazepines (Fig 3, blue) relative to MCLZ-like compounds (Fig 3, red), we investigated the effects of XliHeII-048, Xhe-II-048 and SH-I-055 on schistosome tissues in more detail. Specifically, we were interested in drug-evoked damage to the parasite tegument, which is a feature of many anti-schistosomal compounds [38]. Worms treated with DMSO vehicle control, MCLZ (5 μM) or various imidazobenzodiazepines (10 μM, based on effective concentrations determined in Fig 2) overnight were fixed and processed for imaging by transmission electron microcopy (TEM).
as §1

The conditions of series [4]: human clinical trials; cited from earlier work.
The conditions of series [5]: cited from earlier work.
In the next series the test system is S. japonicum. The settings on record: no reference given; cited from earlier work.
The next series deals with SmGluCl. Also noted: method as in PMID 24009509. The settings on record: cited from earlier work.
Another series relates to schistosomiasis. Also noted: method as in PMID 21695161, PMID 28619227. The settings on record: PZQ treatment; cited from earlier work.
[6] abbreviates: inactive compounds tested at concentrations as high as 50 μM.

pIC50, pKi: −log10 of the molar value. Entries after “also recorded” stand apart in the source; their conditions may differ. Read-outs that look alike come from different tables or passages of the source. A value given as a limit tells only on which side of the number the result lay.

As usually defined, the pKi is −log10 of the Ki, conventionally taken in molar units. Read a high pKi as a low Ki. The pIC50 is the negative decadic logarithm of the IC50, by convention in mol/L. A higher pIC50 goes with a low IC50.

For the compound `O=C1CN=C(c2ccccc2Cl)c2cc([N+](=O)[O-])ccc2N1` [CLZ, clonazepam, reference compound], the negative-log Ki (pKi) in series [1] was 9.09. In the series with adult male S. mansoni [2] (Fig 3), the “Decrease in potency relative to MCLZ (loss of C3 methyl group)” value is more than 3 log. The negative logarithm of the IC50 (pIC50) in the series with adult male S. mansoni [2] (setting [6]) was 5.72.
Take `C[C@H]1N=C(c2ccccc2F)c2cc(C#C[Si](C)(C)C)ccc2NC1=O` [GL-I-61]: the “Worms showing curl phenotype” value with adult male S. mansoni [3] (10 micromolar) is 3/8 curling at 10 micromolar.
`O=C1CN=C(c2ccc(Cl)cc2)c2cc(Cl)ccc2N1` [GL-I-74]: the “Worms showing curl phenotype” value in the series on adult male S. mansoni [3] (10 micromolar) was 1/8 curl at 10 micromolar.
As to `CCOC(=O)c1ncn2c1[C@H](C)N=C(c1ccccc1F)c1cc(C3CC3)ccc1-2` [GL-I-78], in the series on adult male S. mansoni [3] (10 micromolar), the “Worms showing curl phenotype” value is reported as “Inactive (0/8 curl) at 10 micromolar”. Moreover, in the series on adult male S. mansoni [2], the “Potency at evoking coiled, contractile paralysis / activity against parasites (in words)” value is “dramatically decreased affinity”.
On to `C[C@H]1N=C(c2ccccc2F)c2cc(Br)ccc2-n2cnc(-c3cnco3)c21` [GL-III-36], for which the “Worms showing curl phenotype” value in the series with adult male S. mansoni [3] (10 micromolar) was “inactive (0/8 curling) at 10 micromolar”.
As for `C[C@H]1N=C(c2ccccc2F)c2cc(C#C[Si](C)(C)C)ccc2-n2cnc(-c3cnco3)c21` [GL-III-72], the “Worms showing curl phenotype” value with adult male S. mansoni [3] (10 micromolar) is listed as 5/8 curl at 10 micromolar.
In the case of `Brc1ccc2c(c1)C(c1ccccc1)=NCc1c(-c3cnco3)ncn1-2` [KRM-II-73], the “Worms showing curl phenotype” value with adult male S. mansoni [3] (10 micromolar) is reported as 2/8 curl at 10 micromolar.
Consider `Cc1ncoc1-c1ncn2c1CN=C(c1ccccc1)c1cc(Br)ccc1-2` [KRM-III-66], for which, in the series on adult male S. mansoni [3] (10 micromolar), the “Worms showing curl phenotype” value is reported as 6/8 curl at 10 micromolar.
With `C#Cc1ccc2c(c1)C(c1ccccn1)=NCc1c(-c3ocnc3C)ncn1-2` [KRM-III-79], the “Worms showing curl phenotype” value in the series with adult male S. mansoni [3] (10 micromolar) is 5/8 curl at 10 micromolar.
Consider `C[C@@H]1N=C(c2ccccc2Cl)c2cc([N+](=O)[O-])ccc2NC1=O` [MCLZ, meclonazepam], for which the “Recovery of movement following drug washout” value (from here on “Recovery”) in the series with S. mansoni (MCLZ) was “do not recover movement”. Further, the Effective anti-parasitic dose in the series on schistosomes is 0.2 to 0.3 mg/kg. Besides, the “Tegument ultrastructure (TEM)” value in the series with S. mansoni tegument (5 μM, overnight) is on record as “pervasive vacuolization of the tegument”. Moreover, the “Dose at which sedation was reported” value in [4] is reported as “above 0.3 mg/kg”. In series [5] (MCLZ), the Bioavailability result is given as “orally bioavailable” and the Half-life entry is listed as “up to 80 hours”. In series [1], this compound had a negative-log Ki (pKi) of 8.62. In addition, the pIC50 in the series with adult male S. mansoni [2] was 6.80. Also, the “Activity against S. japonicum” value with S. japonicum was “inactive”. Further, in the series with SmGluCl, the “Activity against SmGluCl” value was “inactive”.
In series [1], `C[C@@H]1N=C(c2ccccc2)c2cc([N+](=O)[O-])ccc2NC1=O` [MYM-I-88] showed a pKi of 7.12. Further, the negative logarithm of the IC50 (pIC50) in the series on adult male S. mansoni [2] (setting [6]) is 4.59.
In series [1], `C[C@@H]1N=C(c2ccccc2F)c2cc([N+](=O)[O-])ccc2NC1=O` [MYM-I-91A] showed a pKi of 7.92. For the same compound, the negative logarithm of the IC50 (pIC50) with adult male S. mansoni [2] (setting [6]) is 5.14.
Turning to `C[C@@H]1N=C(c2ccccc2Cl)c2cc([N+](=O)[O-])ccc2N(C)C1=O` [MYM-II-53], the pKi in series [1] is 8.39. Moreover, the pIC50 in the series on adult male S. mansoni [2] (setting [6]) is less than 4.30.
In the case of `O=C(C1CCCCC1)N1CC(=O)N2CCc3ccccc3C2C1` (centres unmarked) [PZQ, praziquantel], the Cure rates with schistosomiasis is 70–90%.
For the compound `C#Cc1ccc2c(c1)C(c1ccccc1F)=N[C@@H](C)c1c(C(=O)OCC)ncn1-2` [SH-053-2’F-S-CH3], the “Potency at evoking coiled, contractile paralysis / activity against parasites (in words)” value in the series with adult male S. mansoni [2] is “dramatically decreased affinity”.
As to `CCOC(=O)c1ncn2c1[C@H](C)N=C(c1ccccc1F)c1cc(Br)ccc1-2` [SH-I-48B], the “Activity (curl phenotype)” value in the series with adult male S. mansoni [3] (up to 100 micromolar) is given as “Inactive up to 100 micromolar”. Moreover, the “Potency at evoking coiled, contractile paralysis / activity against parasites (in words)” value with adult male S. mansoni [2] is “dramatically decreased affinity”.
With `CCOC(=O)c1ncn2c1[C@H](C)N=C(c1ccccc1F)c1cc(C#C[Si](C)(C)C)ccc1-2` [SH-I-055], in the series with S. mansoni (10 μM), the “Recovery” value is on record as “recovering by 1 day after drug washout”. The entries for the “Worms showing curl phenotype” value in the series with adult male S. mansoni [3] (5 micromolar) and with adult male S. mansoni [3] (10 micromolar) were 4/8 and 8/8, respectively. Besides, in the series on S. mansoni tegument (10 μM, overnight (14 hours)), the “Tegument ultrastructure (TEM)” value is recorded as “normal tissue ultrastructure”. For the same compound, the pKi in series [1] is 5.77. In the series on adult male S. mansoni [2] (setting [6]), the pIC50 is 5.85. Further, the “Times less potent than XliHeII-048” value in the series on adult male S. mansoni [2] (movement IC50 comparison) is on record as ~ 3 times.
As for `CCOC(=O)c1ncn2c1[C@@H](C)N=C(c1ccccc1F)c1cc(C#C[Si](C)(C)C)ccc1-2` [SH-I-060], the “Potency at evoking coiled, contractile paralysis / activity against parasites (in words)” value with adult male S. mansoni [2] is “marked decrease in potency; also recorded: essentially inactive”.
As to `CCOC(=O)c1ncn2c1CN=C(c1ccccc1)c1cc(C#C[Si](C)(C)C)ccc1-2` [Xhe-II-048], in the series on S. mansoni (10 μM), the “Recovery” value is on record as “did not recover movement up to one day”. Moreover, in the series on S. mansoni tegument (10 μM, overnight (14 hours)), the “Tegument ultrastructure (TEM)” value was “extensive vacuole distribution beneath the apical membrane”. Further, the pKi in [1] was 5.60. This compound also showed a negative logarithm of the IC50 (pIC50) in the series on adult male S. mansoni [2] of 6.07.
`CCOC(=O)c1ncn2c1CN=C(c1ccccc1F)c1cc(C#C[Si](C)(C)C)ccc1-2` [XliHeII-048]: the “Recovery” value with S. mansoni (10 μM) is on record as “recovering by 1 day after drug washout”. Besides, the “Worms showing curl phenotype” value in the series with adult male S. mansoni [3] (10 micromolar) is recorded as 5/5. In the series on S. mansoni tegument (10 μM, overnight (14 hours)), the “Tegument ultrastructure (TEM)” value was “normal tissue ultrastructure”. This compound also showed a negative-log Ki (pKi) in [1] of 5.80. The same compound gave a pIC50 in the series on adult male S. mansoni [2] of 6.27.
As to `CCOC(=O)c1ncn2c1CN(C)C(=O)c1cc(F)ccc1-2` [flumazenil], the Elimination half-life in series [5] (flumazenil, administered by IV) was less than 1 h. Besides, the Bioavailability entry in series [5] (flumazenil) is on record as “poor bioavailability”.
As for `O=C1CN=C(c2ccccc2)c2cc([N+](=O)[O-])ccc2N1` [nitrazepam, reference compound], in the series on adult male S. mansoni [2] (setting [6]), the pIC50 was less than 4.30. For the same compound, in the series on adult male S. mansoni [2], the “Potency at evoking coiled, contractile paralysis / activity against parasites (in words)” value is “inactive against parasites”.

Values taken from publication PMC6881066, “Non-sedating benzodiazepines cause paralysis and tissue damage in the parasitic blood fluke Schistosoma mansoni” (PLoS Neglected Tropical Diseases, 2019).
